Patent US20060292186A1, “Self-nanoemulsifying oily formulation for the administration of poorly water-soluble drugs” (Novagali Pharma SA, priority 2003, published 2006)

Columns and labels:
[1] = Dose versus plasma AUC pharmacokinetic study of paclitaxel SNEOF after cyclosporin A oral pre-treatment in wild type mice; type: in vivo, FVB Wild type Mice; settings: 10-60 mg/kg p.o., CsA constant at 10 mg/kg
Description: Each cohort consisted of 20 mice. At the specified times, animals were anaesthetized using metofane. After fixation on their back, with their chest in an upright position blood was collected by cardiac puncture using a 1 mL polypropylene syringe fitted with 25 g needle. Blood was transferred immediately into tubes containing potassium EDTA as anticoagulant and mixed by inversion. Blood samples were centrifuged vial for 5 min at 4000 g. The supernatant plasma fraction was transferred to a clean tube with appropriate label and stored at -20° C. until analyses. […] Plasma samples for subsequent analysis were obtained from all animals. […] Plasma concentration data were reported. Plasma concentrations versus time curves were fitted using the […] software package (version 3.0) and pharmacokinetic parameters: […]

[2] = humans, without enhancer; cited from earlier work

CC(=O)O[C@H]1C(=O)[C@@]2(C)[C@H]([C@H](OC(=O)c3ccccc3)[C@]3(O)C[C@H](OC(=O)[C@H](O)[C@@H](NC(=O)c4ccccc4)c4ccccc4)C(C)=C1C3(C)C)[C@]1(OC(C)=O)CO[C@@H]1C[C@@H]2O [paclitaxel, Paclitaxel]
linearity of oral bioavailability with dose [1]: not linear but decreased significantly with dose | systemic bioavailability after oral paclitaxel administration [2]: less than 6%
